Data set [1] can be described thus: Antiproliferative activity against human PBMC cells assessed as cell growth inhibition incubated for 10 mins by CFSE staining based flow cytometric analysis. In kind it is toxicity. (A flow cytometer gives signals particle by particle.)
Data set [2] deals with T-cell line. The experiment in a line: Immunomodulatory activity in human T cells assessed as inhibition of IL-2 production incubated for 15 mins by FACSCalibur flow cytometry analysis. In kind it is functional, cell-based. The conditions noted are these: 0.25 h.
Data set [3] deals with Neuronal acetylcholine receptor; alpha9/alpha10 (Homo sapiens, UniProt Q9GZZ6+Q9UGM1). The experiment in a line: Inhibition of human nAChR alpha9alpha10 expressed in Xenopus laevis oocytes holding potential of -70 mV by voltage-clamp based electrophysiological method. Format: cell-based.
Chain of Neuronal acetylcholine receptor; alpha9/alpha10 (Q9UGM1 whole entry): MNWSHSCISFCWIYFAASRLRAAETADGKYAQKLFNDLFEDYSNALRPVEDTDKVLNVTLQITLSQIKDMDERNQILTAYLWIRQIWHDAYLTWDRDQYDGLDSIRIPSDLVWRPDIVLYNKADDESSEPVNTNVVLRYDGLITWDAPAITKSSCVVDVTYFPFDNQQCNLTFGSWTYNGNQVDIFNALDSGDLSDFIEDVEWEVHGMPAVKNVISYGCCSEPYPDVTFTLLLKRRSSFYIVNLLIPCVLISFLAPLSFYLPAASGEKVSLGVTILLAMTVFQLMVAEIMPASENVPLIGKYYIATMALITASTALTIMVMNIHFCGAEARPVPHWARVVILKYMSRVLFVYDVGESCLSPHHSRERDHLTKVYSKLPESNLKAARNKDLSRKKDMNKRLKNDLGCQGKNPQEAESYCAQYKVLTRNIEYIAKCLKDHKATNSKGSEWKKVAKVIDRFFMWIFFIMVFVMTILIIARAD
Chain of Neuronal acetylcholine receptor; alpha9/alpha10 (Q9GZZ6 whole entry): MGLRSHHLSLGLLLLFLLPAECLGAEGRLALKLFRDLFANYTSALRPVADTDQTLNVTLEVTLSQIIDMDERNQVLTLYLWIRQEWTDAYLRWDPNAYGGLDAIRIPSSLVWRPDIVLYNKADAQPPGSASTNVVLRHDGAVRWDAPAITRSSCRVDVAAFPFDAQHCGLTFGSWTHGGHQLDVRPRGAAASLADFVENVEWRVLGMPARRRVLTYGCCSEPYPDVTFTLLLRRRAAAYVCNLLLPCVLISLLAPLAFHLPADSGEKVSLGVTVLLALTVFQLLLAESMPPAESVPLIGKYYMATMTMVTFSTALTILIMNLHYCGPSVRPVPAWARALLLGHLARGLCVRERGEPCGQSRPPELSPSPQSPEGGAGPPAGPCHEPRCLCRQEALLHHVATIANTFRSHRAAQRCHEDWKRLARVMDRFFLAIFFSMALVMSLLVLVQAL
In data set [4] the test system is Human immunodeficiency virus 1. Kind of data set: Antiviral activity against recombinant luciferase-expressing HIV-1 infected in HEK293T cells incubated for 48 hr by luciferase assay based luminometer analysis. Format: functional, organism-based. The conditions noted are these: Human immunodeficiency virus 1, HEK-293T.
Data set [5] concerns Human immunodeficiency virus. Kind of data set: Antiviral activity against HIV infected in human HeLa cells expressing CD4-LTR-beta-gal assessed as inhibition of syncytia formation measured after 15 hrs by 5-bromo-4-chloro-3-indolyl-beta-D-galactoside staining based colorimetry assay. The note with it: Human immunodeficiency virus 1, HeLa. In kind it is functional, organism-based.

On to `CC(C)C[C@@H]1NC(=O)CNC(=O)[C@H](CC(N)=O)NC(=O)[C@H](CCCNC(=N)N)NC(=O)[C@H]([C@@H](C)O)NC(=O)[C@@H]2CSSC[C@@H]3NC(=O)[C@H]([C@@H](C)O)NC(=O)CNC(=O)CNC(=O)[C@H](C(C)C)NC(=O)[C@@H]4CSSC[C@H](NC(=O)[C@H]([C@@H](C)O)NC(=O)[C@H](CSSC[C@H](NC(=O)[C@H](C(C)C)NC(=O)[C@@H]5CCCN5C1=O)C(=O)NCC(=O)N[C@@H](CCC(=O)O)C(=O)N[C@@H]([C@@H](C)O)C(=O)N4)NC(=O)CNC(=O)[C@@H]1CCCN1C(=O)[C@H]([C@@H](C)O)NC(=O)[C@H](CC(N)=O)NC3=O)C(=O)N[C@@H](CO)C(=O)N[C@@H](Cc1c[nH]c3ccccc13)C(=O)N1CCC[C@H]1C(=O)N[C@@H](C(C)C)C(=O)N2`, for which, in data set [1], the IC50 – broadly, the point on the concentration scale where inhibition reaches its midpoint – at 10 min came to 2900 nM.
As for `CC(C)C[C@@H]1NC(=O)CNC(=O)[C@H](CC(N)=O)NC(=O)[C@H](CCCNC(=N)N)NC(=O)[C@H]([C@@H](C)O)NC(=O)[C@@H]2CSSC[C@@H]3NC(=O)[C@H]([C@@H](C)O)NC(=O)CNC(=O)CNC(=O)[C@H](C(C)C)NC(=O)[C@@H]4CSSC[C@H](NC(=O)[C@H](CCCCN)NC(=O)[C@H](CSSC[C@H](NC(=O)[C@H](C(C)C)NC(=O)[C@@H]5CCCN5C1=O)C(=O)NCC(=O)N[C@@H](CCC(=O)O)C(=O)N[C@@H]([C@@H](C)O)C(=O)N4)NC(=O)CNC(=O)[C@@H]1CCCN1C(=O)[C@H]([C@@H](C)O)NC(=O)[C@H](CC(N)=O)NC3=O)C(=O)N[C@@H](CO)C(=O)N[C@@H](Cc1c[nH]c3ccccc13)C(=O)N1CCC[C@H]1C(=O)N[C@@H](C(C)C)C(=O)N2`, the IC50 in data set [2] came to 1900 nM.
`C[C@@H](O)[C@@H]1NC(=O)[C@@H]2CSSC[C@H](C(=O)N[C@@H](Cc3ccc(O)cc3)C(=O)O)NC(=O)[C@H](CCC(N)=O)NC(=O)[C@H](Cc3ccc(O)c(I)c3)NC(=O)[C@H](CCCNC(=N)N)NC(=O)[C@H](CSSC[C@H](NC(=O)CN)C(=O)N2)NC(=O)[C@H](CCCNC(N)=O)NC(=O)[C@@H]2CCCN2C(=O)[C@H](CC(=O)O)NC1=O` gave a concentration for half-maximal inhibition (IC50) in data set [3] of 1.5 nM.
Take Ac-WMEWDREINNYTSLIEESQNQQEKNEQELL-NH2: the IC50 in data set [4] stood at 2.1 nM; in data set [5] it was 0.55 nM.

These data come from ChEMBL document CHEMBL5104119, “Miniproteins in medicinal chemistry” (Bioorg Med Chem Lett, 2022).
